Where “and” joins values, the source holds several entries; their conditions need not be identical. Equal entries are not always repeated. Toxic doses and inconclusive results are not listed. Cut-off read from the data, not from the text of the source: active = T/C of 150% or more; inactive = T/C below 125%.
Test system: L1210 leukemia ip in BDF1 mice, survival T/C
Assay: NCI In Vivo Anticancer Drug Screen. Data for tumor model L1210 Leukemia (intraperitoneal) in B6D2F1 (BDF1) mice
Settings: endpoint: mean survival time, higher = longer survival
Outline: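 Ratio derived from survival: compound-dosed mice over vehicle-dosed mice, all bearing a transplantable tumor.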

[1] = dose: 50.0 mg/kg/injection, schedule: Q04DX003 (ip), vehicle: saline
[2] = dose: 100.0 mg/kg/injection, schedule: Q04DX003 (ip), vehicle: saline
[3] = dose: 100.0 mg/kg/injection, schedule: Q04DX002 (ip), vehicle: Klucel (hydroxypropylcellulose) (HPC)
[4] = dose: 200.0 mg/kg/injection, schedule: Q04DX002 (ip), vehicle: Klucel (hydroxypropylcellulose) (HPC)
[5] = dose: 400.0 mg/kg/injection, schedule: Q04DX002 (ip), vehicle: Klucel (hydroxypropylcellulose) (HPC)
[6] = dose: 100.0 mg/kg/injection, schedule: Q04DX003 (ip), vehicle: saline with Tween-80
[7] = dose: 200.0 mg/kg/injection, schedule: Q04DX003 (ip), vehicle: saline with Tween-80
[8] = dose: 400.0 mg/kg/injection, schedule: Q04DX003 (ip), vehicle: saline with Tween-80
[9] = dose: 100.0 mg/kg/injection, schedule: Q01DX009 (ip), vehicle: saline with Tween-80
[10] = dose: 200.0 mg/kg/injection, schedule: Q01DX009 (ip), vehicle: saline with Tween-80
[11] = dose: 100.0 mg/kg/injection, schedule: Q01DX001 (ip), vehicle: Klucel (hydroxypropylcellulose) (HPC)
[12] = dose: 200.0 mg/kg/injection, schedule: Q01DX001 (ip), vehicle: Klucel (hydroxypropylcellulose) (HPC)
[13] = dose: 400.0 mg/kg/injection, schedule: Q01DX001 (ip), vehicle: Klucel (hydroxypropylcellulose) (HPC)
[14] = dose: 100.0 mg/kg/injection, schedule: Q04DX003 (ip), vehicle: Klucel (hydroxypropylcellulose) (HPC)
[15] = dose: 200.0 mg/kg/injection, schedule: Q04DX003 (ip), vehicle: Klucel (hydroxypropylcellulose) (HPC)
[16] = dose: 100.0 mg/kg/injection, schedule: Q01DX001 (ip), vehicle: saline
[17] = dose: 200.0 mg/kg/injection, schedule: Q01DX001 (ip), vehicle: saline
[18] = dose: 400.0 mg/kg/injection, schedule: Q01DX001 (ip), vehicle: saline
[19] = dose: 12.5 mg/kg/injection, schedule: Q01DX009 (ip), vehicle: saline
[20] = dose: 12.5 mg/kg/injection, schedule: Q04DX003 (ip), vehicle: saline
[21] = dose: 25.0 mg/kg/injection, schedule: Q01DX009 (ip), vehicle: saline
[22] = dose: 50.0 mg/kg/injection, schedule: Q01DX009 (ip), vehicle: saline
[23] = dose: 200.0 mg/kg/injection, schedule: Q04DX003 (ip), vehicle: saline
[24] = dose: 400.0 mg/kg/injection, schedule: Q04DX003 (ip), vehicle: saline

Measured: T/C

COc1ccc(OC(=O)Nc2cc(Cl)ccc2C)cc1
inactive: dose: 100.0 mg/kg/injection, schedule: Q01DX009 (ip), vehicle: Klucel (hydroxypropylcellulose) (HPC) 94 % of control | dose: 200.0 mg/kg/injection, schedule: Q01DX009 (ip), vehicle: Klucel (hydroxypropylcellulose) (HPC) 91 % of control | dose: 400.0 mg/kg/injection, schedule: Q01DX009 (ip), vehicle: Klucel (hydroxypropylcellulose) (HPC) 94 % of control

CC1C[N-]CC(C)C1.[CH-]=C(C)C.[Cl][Pt+2][Cl] (stereo not given)
inactive: [1] 115 % of control | [2] 111 % of control

CCCCCCCCCCCCCC(O)CC(=O)O (stereo not given)
inactive: [3] 91 % of control | [4] 91 % of control | [5] 104 % of control

OCCNc1ncnc2ccccc12
inactive: [6] 98 % of control | [7] 104 % of control | [8] 104 % of control

COc1cc2ccnc(Cc3ccccc3)c2cc1OC
inactive: dose: 50.0 mg/kg/injection, schedule: Q01DX009 (ip), vehicle: saline with Tween-80 103 % of control | [9] 93 % of control and 94 % of control | [6] 102 % of control | [10] 88 % of control | [7] 100 % of control

CCCN1CC2=C1C(=O)c1ccccc1C2=O
inactive: dose: 100.0 mg/kg/injection, schedule: Q01DX001 (ip), vehicle: other 97 % of control | dose: 200.0 mg/kg/injection, schedule: Q01DX001 (ip), vehicle: other 93 % of control | dose: 400.0 mg/kg/injection, schedule: Q01DX001 (ip), vehicle: other 87 % of control

N=C1SC(c2ccccc2)c2ccccc21 (stereo not given)
inactive: [11] 98 % of control | [12] 93 % of control | [13] 95 % of control

CCCCCC[n+]1cccc(C(N)=O)c1
inactive: [14] 100 % of control | [15] 94 % of control

CCCCCC(C)n1c(C)cc(=O)n1C(C)CCCCC (stereo not given)
inactive: dose: 75.0 mg/kg/injection, schedule: Q01DX001 (ip), vehicle: other 92 % of control | dose: 150.0 mg/kg/injection, schedule: Q01DX001 (ip), vehicle: other 97 % of control

COC(=O)CCC(=O)c1ccc(Cl)cc1
inactive: dose: 100.0 mg/kg/injection, schedule: Q01DX009 (ip), vehicle: gum acacia 98 % of control | dose: 100.0 mg/kg/injection, schedule: Q04DX003 (ip), vehicle: gum acacia 100 % of control | dose: 200.0 mg/kg/injection, schedule: Q01DX009 (ip), vehicle: gum acacia 97 % of control | dose: 200.0 mg/kg/injection, schedule: Q04DX003 (ip), vehicle: gum acacia 96 % of control | dose: 400.0 mg/kg/injection, schedule: Q01DX009 (ip), vehicle: gum acacia 101 % of control | dose: 400.0 mg/kg/injection, schedule: Q04DX003 (ip), vehicle: gum acacia 102 % of control

COc1ccc(N=C2C(=O)Nc3ccc(Br)cc32)cc1
inactive: [3] 107 % of control | [4] 96 % of control | [5] 107 % of control

O=C(Nc1cccc2ccccc12)N1CCCc2ccccc21
inactive: dose: 50.0 mg/kg/injection, schedule: Q01DX001 (ip), vehicle: carboxymethylcellulose (CMC) 88 % of control | dose: 100.0 mg/kg/injection, schedule: Q01DX001 (ip), vehicle: carboxymethylcellulose (CMC) 98 % of control | dose: 200.0 mg/kg/injection, schedule: Q01DX001 (ip), vehicle: carboxymethylcellulose (CMC) 95 % of control | dose: 400.0 mg/kg/injection, schedule: Q01DX001 (ip), vehicle: carboxymethylcellulose (CMC) 90 % of control

NC(CCl)C(=O)O (stereo not given)
inactive: dose: 6.25 mg/kg/injection, schedule: Q01DX001 (ip), vehicle: saline 103 % of control | dose: 12.5 mg/kg/injection, schedule: Q01DX001 (ip), vehicle: saline 101 % of control | dose: 25.0 mg/kg/injection, schedule: Q01DX001 (ip), vehicle: saline 103 % of control | dose: 50.0 mg/kg/injection, schedule: Q01DX001 (ip), vehicle: saline 97 % of control | [16] 92 % of control | [17] 90 % of control

CC(C)C(Sc1nc(N)nc2nc[nH]c12)C(=O)O (stereo not given)
inactive: [16] 98 % of control | dose: 100.0 mg/kg/injection, schedule: Q01DX009 (ip), vehicle: saline sonified 94 % of control | [14] 96 % of control | [17] 96 % of control | dose: 200.0 mg/kg/injection, schedule: Q01DX009 (ip), vehicle: saline sonified 106 % of control | [15] 100 % of control | [18] 102 % of control | dose: 400.0 mg/kg/injection, schedule: Q01DX009 (ip), vehicle: saline sonified 100 % of control | dose: 400.0 mg/kg/injection, schedule: Q04DX003 (ip), vehicle: Klucel (hydroxypropylcellulose) (HPC) 98 % of control

COc1cc(OC)c(Oc2cc(OC)c(OC)c(OC)c2)c(OC)c1
inactive: [6] 97 % of control | [7] 103 % of control | [8] 101 % of control

Cc1cc([N+](C)(C)C)cc(C)c1C#[N+][O-]
inactive: dose: 1.25 mg/kg/injection, schedule: Q01DX001 (ip), vehicle: saline 104 % of control | dose: 2.5 mg/kg/injection, schedule: Q01DX001 (ip), vehicle: saline 93 % of control | dose: 5.0 mg/kg/injection, schedule: Q01DX001 (ip), vehicle: saline 102 % of control | dose: 10.0 mg/kg/injection, schedule: Q01DX001 (ip), vehicle: saline 102 % of control

CNC(C)CC1CCCCC1 (stereo not given)
inactive: dose: 0.78 mg/kg/injection, schedule: Q04DX003 (ip), vehicle: saline 94 % of control | dose: 1.56 mg/kg/injection, schedule: Q01DX009 (ip), vehicle: saline 100 % of control | dose: 1.56 mg/kg/injection, schedule: Q04DX003 (ip), vehicle: saline 98 % of control | dose: 3.12 mg/kg/injection, schedule: Q01DX009 (ip), vehicle: saline 102 % of control | dose: 3.12 mg/kg/injection, schedule: Q04DX003 (ip), vehicle: saline 98 % of control | dose: 6.25 mg/kg/injection, schedule: Q01DX009 (ip), vehicle: saline 97 % of control | dose: 6.25 mg/kg/injection, schedule: Q04DX003 (ip), vehicle: saline 98 % of control | [19] 96 % of control | [20] 100 % of control | [21] 97 % of control | dose: 25.0 mg/kg/injection, schedule: Q04DX003 (ip), vehicle: saline with Tween-80 94 % of control | [22] 106 % of control

COc1ccc2c3c(ccc2c1)C(=O)C(C)(C#N)CC3 (stereo not given)
inactive: dose: 100.0 mg/kg/injection, schedule: Q01DX009 (ip), vehicle: saline 88 % of control | [2] 89 % of control | dose: 200.0 mg/kg/injection, schedule: Q01DX009 (ip), vehicle: saline 91 % of control | [23] 89 % of control | dose: 400.0 mg/kg/injection, schedule: Q01DX009 (ip), vehicle: saline 95 % of control | [24] 94 % of control

NCCCCC(N)C(=O)O (stereo not given)
inactive: [11] 115 % of control | [16] 94 % of control | [12] 100 % of control | [17] 97 % of control | [13] 86 % of control | [18] 94 % of control

CN(C)CCOC(=O)C1C2CC3OC(=O)C1C3C2 (stereo not given)
inactive: [2] 96 % of control | [23] 104 % of control | [24] 104 % of control

CCCCCCCCCNC(=O)Nc1cccc(Cl)c1C
inactive: [9] 86 % of control | [6] 90 % of control | [10] 87 % of control | [7] 90 % of control | [8] 90 % of control

COn1c(CC(=O)C(=O)O)cccc1=O
inactive: [2] 102 % of control | [23] 97 % of control | [24] 94 % of control

C=C(Cl)C[N+]12CN3CN(CN(C3)C1)C2
inactive: [19] 108 % of control | [20] 102 % of control | [21] 101 % of control | dose: 25.0 mg/kg/injection, schedule: Q04DX003 (ip), vehicle: saline 104 % of control | [22] 111 % of control | [1] 102 % of control

C/C(CCC(=O)OC(C)(C)C)=N\N(C)C
inactive: [2] 93 % of control | [23] 91 % of control | [24] 111 % of control
